Assay results as given in patent publication US6372747B1, “Farnesyl protein transferase inhibitors” (Schering Corporation, priority 1998, dated 2002).

System: not given
Experiment: not given
Settings: not given

| SMILES | melting point [°C] |
| --- | --- |
| Cn1cncc1CCNC(=O)[C@H]1CN(C2c3ccc(Cl)cc3CCc3cc(Br)cnc32)CCN1C(=O)CC1CCN(C(=O)OC(C)(C)C)CC1 (single isomer, unassigned) [Example 37] | 141.7 to 143.2 |
| Cn1cncc1CCNC(=O)[C@H]1CN(C2c3ccc(Cl)cc3CCc3cc(Br)cnc32)CCN1C(=O)CC1CCN(C(N)=O)CC1 (single isomer, unassigned) [Example 39] | 148.1 to 150.4 |
| Cn1cncc1CCN(Cc1ccccc1)C(=O)[C@H]1CN(C2c3ccc(Cl)cc3CCc3cc(Br)cnc32)CCN1C(=O)NC1CCCCC1 (single isomer, unassigned) [Example 60] | 130 to 139 |
| Cn1cncc1CCN(Cc1ccccc1)C(=O)[C@H]1CN(C2c3ccc(Cl)cc3CCc3cc(Br)cnc32)CCN1C(=O)NC(C)(C)C (single isomer, unassigned) [Example 61] | 127 to 130 |
| Cn1cncc1CCN(Cc1ccccc1)C(=O)[C@H]1CN(C2c3ccc(Cl)cc3CCc3cccnc32)CCN1C(=O)OC(C)(C)C (single isomer, unassigned) [Example 62] | 93.1 to 99.8 |
| CC(C)(CCNC(=O)[C@H]1CN(C2c3ccc(Cl)cc3CCc3cc(Br)cnc32)CCN1C(=O)OCc1ccccc1)n1ccnc1 (some centres unmarked) [Example 3] | 103 to 106 |
| O=C(NCCC(c1ccc(Cl)cc1)n1ccnc1)[C@H]1CN(C2c3ccc(Cl)cc3CCc3cc(Br)cnc32)CCN1C(=O)NC1CCCCC1 (some centres unmarked) [Example 5] | 138 to 140 |
| CC(C)(CCNC(=O)[C@H]1CN([C@H]2c3ccc(Cl)cc3CCc3cc(Br)cnc32)CCN1C(=O)Cc1cc[n+]([O-])cc1)n1ccnc1 [Example 6] | 115 to 117 |
| CC(C)(CCNC(=O)[C@H]1CN([C@@H]2c3ccc(Cl)cc3CCc3cc(Br)cnc32)CCN1C(=O)CC1CCN(C(N)=O)CC1)n1ccnc1 [Example 9] | 150 to 153 |
| CC(C)(C)NC(=O)N1CCN([C@H]2c3ccc(Cl)cc3CCc3cc(Br)cnc32)C[C@@H]1C(=O)NCCC(C)(C)n1ccnc1 [Example 10] | 139 to 142 |
| CC(C)(C)NC(=O)N1CCN([C@H]2c3ccc(Cl)cc3CCc3cc(Br)cnc32)C[C@@H]1C(=O)NCCC1(n2ccnc2)CC1 [Example 12] | 136 to 139 |
| CC(C)(C)NC(=O)N1CCN([C@@H]2c3ccc(Cl)cc3CCc3cc(Br)cnc32)C[C@@H]1C(=O)NCCC1(n2ccnc2)CC1 [Example 13] | 106 to 110 |
| CC(C)NC(=O)N1CCN(C2c3ccc(Cl)cc3CCc3cc(Br)cnc32)CC1C(=O)NCCC1(n2ccnc2)CC1 (centres unmarked) [Example 14] | 133 to 139 |
| CN(C)C(=O)N1CCN(C2c3ccc(Cl)cc3CCc3cc(Br)cnc32)CC1C(=O)NCCC(C)(C)n1ccnc1 (centres unmarked) [Example 18] | 139 to 142 |
| CC(CCNC(=O)[C@H]1CN(C2c3ccc(Cl)cc3CCc3cc(Br)cnc32)CCN1C(=O)NC1CCCCC1)n1ccnc1 (some centres unmarked) [Example 19] | 133 to 138 |
| CC(C)(CNC(=O)[C@H]1CN(C2c3ccc(Cl)cc3CCc3cc(Br)cnc32)CCN1C(=O)NC1CCCCC1)c1cnc[nH]1 (some centres unmarked) [Example 21] | 150 to 154 |
| O=C(NCC1(c2cnc[nH]2)CC1)[C@H]1CN(C2c3ccc(Cl)cc3CCc3cc(Br)cnc32)CCN1C(=O)NC1CCCCC1 (some centres unmarked) [Example 22] | 156 to 158 |

| SMILES | melting point [°C] |
| --- | --- |
| NC(=O)[C@H](Cc1cn(C(=O)NC2CCCCC2)cn1)NC(=O)[C@H]1CN(C2c3ccc(Cl)cc3CCc3cc(Br)cnc32)CCN1C(=O)NC1CCCCC1 (some centres unmarked) [Example 24] | 164 to 167 |
| CC(C)n1cncc1CCNC(=O)[C@H]1CN(C2c3ccc(Cl)cc3CCc3cc(Br)cnc32)CCN1C(=O)OC(C)(C)C (some centres unmarked) [Example 42] | 98 to 101 |
| CC(C)Cn1cncc1CCNC(=O)[C@H]1CN(C2c3ccc(Cl)cc3CCc3cc(Br)cnc32)CCN1C(=O)OC(C)(C)C (some centres unmarked) [Example 43] | 120 to 122 |
| CC(C)(C)OC(=O)N1CCN(C2c3ccc(Cl)cc3CCc3cc(Br)cnc32)C[C@@H]1C(=O)NCCc1cncn1CCc1ccccc1 (some centres unmarked) [Example 44] | 101 to 103 |
| CN(CCCn1ccnc1)C(=O)[C@H]1CN(C2c3ccc(Cl)cc3CCc3cc(Br)cnc32)CCN1C(=O)NC1CCCCC1 (some centres unmarked) [Example 110] | 118.4 |
| CCN(CCCn1ccnc1)C(=O)[C@H]1CN(C2c3ccc(Cl)cc3CCc3cc(Br)cnc32)CCN1C(=O)NC1CCCCC1 (some centres unmarked) [Example 111] | 79.3 |
| CCCN(CCCn1ccnc1)C(=O)[C@H]1CN(C2c3ccc(Cl)cc3CCc3cc(Br)cnc32)CCN1C(=O)NC1CCCCC1 (some centres unmarked) [Example 112] | 63.8 to 67.4 |
| O=C(NCCn1nc2ccccc2n1)[C@H]1CN(C2c3ccc(Cl)cc3CCc3cc(Br)cnc32)CCN1C(=O)NC1CCCCC1 (some centres unmarked) [Example 291] | 132 to 135 |
| O=C(NCCn1nnc2ccccc21)[C@H]1CN(C2c3ccc(Cl)cc3CCc3cc(Br)cnc32)CCN1C(=O)NC1CCCCC1 (some centres unmarked) [Example 292] | 127 to 132 |
| O=C(NCCc1cnc(C(F)(F)F)[nH]1)[C@H]1CN(C2c3ccc(Cl)cc3CCc3cc(Br)cnc32)CCN1C(=O)NC1CCCCC1 (some centres unmarked) [Example 294] | 173.8 |
| O=C(NCCCn1ccnc1CO)[C@H]1CN(C2c3ccc(Cl)cc3CCc3cc(Br)cnc32)CCN1C(=O)NC1CCCCC1 (some centres unmarked) [Example 296] | 141.2 |
| O=C(NCCc1cnc(O)[nH]1)[C@H]1CN(C2c3ccc(Cl)cc3CCc3cc(Br)cnc32)CCN1C(=O)NC1CCCCC1 (some centres unmarked) [Example 297] | 182.1 to 219.4 |
| CCn1cncc1CCN(CC1CC1)C(=O)[C@H]1CN(C2c3ccc(Cl)cc3CCc3cc(Br)cnc32)CCN1C(=O)OC(C)(C)C (some centres unmarked) [Example 304] | 103.7 to 107.5 |
| Cn1cncc1CCN(CC1CC1)C(=O)[C@H]1CN([C@H]2c3ccc(Cl)cc3CCc3cccnc32)CCN1C(=O)OC(C)(C)C [Example 306] | 100 to 114 |
| CCn1cncc1CCN(CC1CC1)C(=O)[C@H]1CN([C@H]2c3ccc(Cl)cc3CCc3cccnc32)CCN1C(=O)OC(C)(C)C [Example 307] | 89.1 to 96.5 |
| CCn1cncc1CCN(CC1CC1)C(=O)[C@H]1CN([C@@H]2c3ccc(Cl)cc3CCc3cccnc32)CCN1C(=O)OC(C)(C)C [Example 308] | 89.1 to 96.5 |
| Cc1cn(CCCN(Cc2ccccc2)C(=O)[C@H]2CN(C3c4ccccc4CCc4cc(Cl)cnc43)CCN2C(=O)OC2CCCCC2)cn1 (some centres unmarked) [Example 395] | 91 to 107 |

Now from value to compound:

| melting point [°C] | SMILES |
| --- | --- |
| 107 to 110 | CC(C)(CCNC(=O)[C@H]1CN(C2c3ccc(Cl)cc3CCc3cc(Br)cnc32)CCN1S(C)(=O)=O)n1ccnc1 (mixture of isomers) [Example 15] |
| 140.1 to 149.4 | Cn1cncc1CCNC(=O)[C@H]1CN(C2c3ccc(Cl)cc3CCc3cc(Br)cnc32)CCN1C(=O)Nc1ccc(F)cc1 (single isomer, unassigned) [Example 27] |
| 128.1 to 135.2 | Cn1cncc1CCNC(=O)[C@H]1CN(C2c3ccc(Cl)cc3CCc3cc(Br)cnc32)CCN1C(=O)NC(C)(C)C (single isomer, unassigned) [Example 28] |
| 128.1 to 133.4 | CC(C)NC(=O)N1CCN(C2c3ccc(Cl)cc3CCc3cc(Br)cnc32)C[C@@H]1C(=O)NCCc1cncn1C (single isomer, unassigned) [Example 29] |
| 120.3 to 126.1 | CC(C)OC(=O)N1CCN(C2c3ccc(Cl)cc3CCc3cc(Br)cnc32)C[C@@H]1C(=O)NCCc1cncn1C (single isomer, unassigned) [Example 30] |
| 136.4 to 138.6 | Cn1cncc1CCNC(=O)[C@H]1CN(C2c3ccc(Cl)cc3CCc3cc(Br)cnc32)CCN1C(=O)N1CCOCC1 (single isomer, unassigned) [Example 31] |
| 134.9 to 137.5 | Cn1cncc1CCNC(=O)[C@H]1CN(C2c3ccc(Cl)cc3CCc3cc(Br)cnc32)CCN1C(=O)OC(C)(C)C (single isomer, unassigned) [Example 32] |
| 139 to 145.1 | Cn1cncc1CCNC(=O)[C@H]1CN(C2c3ccc(Cl)cc3CCc3cc(Br)cnc32)CCN1S(C)(=O)=O (single isomer, unassigned) [Example 33] |
| 144.9 to 148.7 | Cn1cncc1CCNC(=O)[C@H]1CN(C2c3ccc(Cl)cc3CCc3cc(Br)cnc32)CCN1C(=O)c1ccc(F)cc1 (single isomer, unassigned) [Example 34] |
| 132.5 to 139.7 | Cn1cncc1CCNC(=O)[C@H]1CN(C2c3ccc(Cl)cc3CCc3cc(Br)cnc32)CCN1C(=O)Cc1ccc(F)cc1 (single isomer, unassigned) [Example 35] |
| 168.9 to 172.3 | Cn1cncc1CCNC(=O)[C@H]1CN(C2c3ccc(Cl)cc3CCc3cc(Br)cnc32)CCN1C(=O)Cc1cc[n+]([O-])cc1 (single isomer, unassigned) [Example 36] |
| 136.1 to 139.5 | Cn1cncc1CCNC(=O)[C@H]1CN(C2c3ccc(Cl)cc3CCc3cc(Br)cnc32)CCN1C(=O)CC1CCNCC1 (single isomer, unassigned) [Example 38] |
| 111.8 to 114.5 | Cn1cncc1CCNC(=O)[C@H]1CN(C2c3ccc(Cl)cc3CCc3cc(Br)cnc32)CCN1C(=O)OCc1ccccc1 (some centres unmarked) [Example 26] |
| 54 to 58 | CCn1cncc1CCNC(=O)[C@H]1CN(C2c3ccc(Cl)cc3CCc3cc(Br)cnc32)CCN1C(=O)OC(C)(C)C (some centres unmarked) [Example 40] |
| 116 to 123 | CCCn1cncc1CCNC(=O)C1CN(C2c3ccc(Cl)cc3CCc3cc(Br)cnc32)CCN1C(=O)OC(C)(C)C (centres unmarked) [Example 41] |

System: Human tumor cells
Experiment: Soft Agar Assay (anchorage-independent growth)
Type: cell-based
Settings: Homo sapiens, range stated for the group unless single
Method: Anchorage-independent growth is a characteristic of tumorigenic cell lines. Human tumor cells can be suspended in growth medium containing 0.3% agarose and an indicated concentration of a farnesyl transferase inhibitor. The solution can be overlayed onto growth medium solidified with 0.6% agarose containing the same concentration of farnesyl transferase inhibitor as the top layer. After the top layer is solidified, plates can be incubated for 10-16 days at 37° C. under 5% CO2 to allow colony outgrowth. After incubation, the colonies can be stained by overlaying the agar with a solution of MTT (3-[4,5-dimethyl-thiazol-2-yl]-2,5-diphenyltetrazolium bromide, Thiazolyl blue) (1 mg/mL in PBS). Colonies can be counted and the IC50's can be determined.

| IC50 [nM] | SMILES |
| --- | --- |
| 2 to 300 | CCOC(=O)N1CCC([C@H]2c3ccc(Cl)cc3CCc3cc(Br)cnc32)CC1C(=O)N(CCCn1ccnc1)Cc1ccccc1 (single isomer, unassigned) [80 (Isomer A)] |
